# Data from patent publication US20260021167A1, “COMPOSITIONS AND METHODS FOR TREATING OR PREVENTING NEURODEGENERATIVE DISEASES” (Delaware State University, priority 2022, published 2026).
# Experiments:
# [1] = tested on: N27 cells; assay: Cell viability (MTT) assay after PFF exposure; assay type: cell-based, rat; details: N27 cells after PFF (1 μg/ml) exposure for 24 h; compared to PFF only control
# From the text: Cell Viability Assay. The MTT assay is a colorimetric assay that is based on the conversion of water-soluble MTT (3-(4,5-dimethylthiazol-2-yl)-2,5-diphenyltetrazolium bromide) into formazan crystal by mitochondrial dehydrogenase enzymes, soluble in 100% DMSO. The resulting solution is purple in color, and the color intensity is proportional to the viable cells for each well in a 96-well plate. A variety of SENP-1 inhibitors, such as SUMO-2 aldehyde, Momordin lc, streptonigrin, hinokiflavone, oleanolic acid and siRNA of SENP-1, were treated in N27 cells after PFF (1 μg/ml) exposure for 24 h. After adding 5 mM MTT dye to cells, the color intensity in MTT assays was measured using a spectrophotometer (SpectraMax M5e, Molecular devices, Dover, USA), at 570 nm with a reference wavelength of 630 nm. The cells were incubated with the MTT reagent (ab211091, Abcam) at 37° C. for 3 h, followed by solubilizing the formazan crystals in solution.
# In this study, numerous commercially available SENP-1 inhibitors were tested for the recovery effects from preformed fibrils of alpha-synuclein (PFF)-induced PD models in vitro. […]
# [2] = tested on: PFF-injected old mice; assay: Nesting in PFF-injected mice; assay type: in vivo, mouse; details: 10 and/or 50 mg/kg oral, vs PFF only
# Experimental: (§1) A mouse model of Parkinson's disease is C57BL/6 male or female mice (50% each) injected with 5 μg of mouse PFF at 12 months old, followed by a treatment below for 6-7 weeks: • 1) without PFF injection, followed by vehicle (control, n=7); • 2) PFF injection, followed by vehicle (PFF only: control, n=8); • 3) PFF injection, followed by daily 10 mg/kg Momordin gavage (n=7-8); • 4) PFF injection, followed by daily 50 mg/kg Momordin gavage (n=7-8).
# Nesting. A 5×5 cm cotton nesting patch was placed in a clean cage housing a single animal. On the following day, pictures were taken of the condition of the nesting material utilized and analyzed in a blind manner. The ability of an animal to tear up the cotton nesting material and build a nest dictates the activity and motor coordination levels of the animal. Three dimensionally built nest was given as 5 points as the highest score, and a barely touched nesting patch was considered a low score of 1 point. The points were represented on the graph to show any improvement in nesting capabilities across the groups.
# [3] = tested on: TH+ dopaminergic neurons; assay: Immunohistochemistry of TH staining in striatum and SNc of PFF-injected mice; assay type: in vivo, mouse
# Experimental: as §1
# Immunohistochemistry. The serial coronal sections of the right hemisphere were collected throughout the striatum and substantia nigra. Each section with a thickness of 14 μm was mounted as a set of 5 onto positively charged slides (Midwest Sci, Valley Park, MO). The slides were kept at −80° C. until immunohistochemistry was performed. The sections were thawed at room temperature for 30 min, followed by a rehydration step in 0.1M PB for 10 min. The permeabilization step was performed using pre-chilled 100% acetone for 10 min. The excess acetone was dried, and permeabilization solution (40 µL Triton-X in 2% BSA) was added to the slides and kept aside for an additional 10 min. A blocking reagent containing 5% BSA in PB-T was given in the blocking step after drying the slides of excess permeabilization solution. The primary antibody was exposed under the coverslips to prevent the dehydration of the primary antibody. After the primary antibody (EMD Millipore-AB152) treatment at 4° C. overnight, the tissues were washed in PBS-T for 5 min three times. Then, slides were treated with a secondary antibody of Alexa-647-conjugated goat anti-rabbit (1:1000; Molecular Probes, Thermo Fisher Scientific) and incubated at room temperature for 2 h. The secondary antibody was washed in PBS-T for 3×5 min. Coverslips were mounted on slides using ProLong Diamond antifade mounting medium (Thermofisher, MA, USA). All images were captured using EVOS FL Cell Imaging Systems (Invitrogen), and every fifth section was analyzed for measuring the intensity of TH staining in the striatum and counting TH+ neurons in the SNc in a blinded manner. The same procedure was used for assessing the levels of phosphorylated Ser-129-α-synuclein (1:500, Cell signaling, cat #23706S) and protein aggregation using thioflavin-T (20 μM, Acros). Pictures for specific regions such as the striatum and ventral midbrain (vMB) were taken using confocal microscopy and stitched together to obtain a single image for representation purposes. The intensities were measured using ImageJ by a blinded rater.
# Immunohistochemistry. The serial coronal sections of the right hemisphere were collected throughout the striatum and substantia nigra. Each section with a thickness of 14 μm was mounted as a set of 5 onto positively charged slides (Midwest Sci, Valley Park, MO). […]
compound,measurement,setting,value
CC1(C)CC[C@]2(C(=O)O)CC[C@]3(C)C(=CC[C@@H]4[C@@]5(C)CC[C@H](O[C@@H]6O[C@H](C(=O)O)[C@@H](O)[C@H](O[C@@H]7OC[C@@H](O)[C@H](O)[C@H]7O)[C@H]6O)C(C)(C)[C@@H]5CC[C@]43C)[C@@H]2C1 [Momordin lc],cell viability from PFF-mediated toxicity (MTT assay),[1],significantly enhanced the cell viability
same,nesting,[2],improves the nesting
same,recovery from damages in the striatum and Substantia Nigra compacta (SNc),"[3]; 50 mg/kg oral for 6-7 weeks, PFF-injected mice",effective
same,dopaminergic neuronal death / neuronal cell loss in mouse brains,[3]; PFF injection,reverse dopaminergic neuronal death
same,number of TH+ dopaminergic neurons in the SNc,"[3]; both doses (10 and 50 mg/kg) oral for 6-7 weeks, PFF-injected mice, vs PFF only",significantly recovered
same,intensity of TH+ label in the striatum,"[3]; oral treatment for 6-7 weeks, PFF-injected mice, vs PFF only",improves the intensity of TH+ label
